Drawing on patent publication US20250325525A1, “GLP1 TABLET COMPOSITIONS” (Eli Lilly and Company, priority 2022, published 2025), this text covers solubility for one compound.

Bounds are passed on as bounds.

The data set is described as follows: Twenty-four hour aqueous solubility at 25° C. In kind it is physicochemical. Conditions: thermodynamic from solid, crystalline. The procedure:
Twenty-four Hour Aqueous Solubility of Crystalline GLP1RA-Ca at 25° C.
Twenty-Four Hour Aqueous Solubility of Preparation 3 SDD at 25° C.

In general, solubility refers to the dissolved amount per volume that the medium holds. Read a high solubility as much dissolved substance. Regarding `Cc1cc(-n2nc3c(c2-n2ccn(-c4ccc5c(cnn5C)c4F)c2=O)[C@H](C)N(C(=O)c2cc4cc([C@H]5CCOC(C)(C)C5)ccc4n2[C@@]2(c4noc(=O)[nH]4)C[C@@H]2C)CC3)cc(C)c1F` [GLP1RA-Ca, 3-[(1S,2S)-1-[5-[(4S)-2,2-dimethyloxan-4-yl]-2-[(4S)-2-(4-fluoro-3,5-dimethylphenyl)-3-[3-(4-fluoro-1-methylindazol-5-yl)-2-oxoimidazol-1-yl]-4-methyl-6,7-dihydro-4H-pyrazolo[4,3-c]pyridine-5-carbonyl]indol-1-yl]-2-methylcyclopropyl]-4H-1,2,4-oxadiazol-5-one, 0.5 Ca hydrate], the solubility at 24 h is, setting by setting: (aqueous buffer, pH 4.5 acetate buffer (USP), media pH 4.5) below 1 µg/mL; (aqueous buffer, pH 6.0 phosphate buffer (USP), media pH 5.99) below 1 µg/mL; (aqueous buffer, pH 7.5 phosphate buffer (USP), media pH 7.44) 3 µg/mL; (fassif, Fasted state simulated intestinal fluid, media pH 6.49) 2 µg/mL; (fessif, Fed state simulated intestinal fluid, media pH 4.93) 13 µg/mL; (simulated gastric fluid, 0.01N HCl, media pH 1.98) below 1 µg/mL. The solubility at 24 h was below 1 µg/mL (simulated gastric fluid, 0.1N HCl, media pH 1.01); 3 µg/mL (Simulated gastric fluid, media pH 1.97); 28 µg/mL (Water, media pH not measured).
